Among the test systems are HOP-62; LOX IMVI; KM12; RXF 393; ACHN; SK-MEL-28; OVCAR-8; TK-10; DMS-273; HCT-15; IGROV-1; OVCAR-5; A498; SK-MEL-2; OVCAR-4; SK-MEL-5; MDA-N; HOP-92; T47D; DU-145.
Holding throughout (assay): NCI tumour cell line growth inhibition, 48 h

Data on five compounds can be found in ChEMBL document CHEMBL1201862, “PubChem BioAssay data set” (2004).

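A five-concentration, 48-hour dose response in 96-well plates underlies each endpoint, interpolated linearly between surrounding concentrations. The concentration for 50% growth inhibition is given as GI50.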 Calls of active or inactive are those of the source. Cut-off read from the data, not from the text of the source: active = GI50 up to about 1.1 µM and inactive = higher.

As to `CC(=O)Nc1ccc(Cl)c(Cl)c1`, the GI50 in the experiment with HOP-62, in the experiment with LOX IMVI, in the experiment with KM12, with RXF 393, in the experiment with ACHN and in the experiment on SK-MEL-28 was > 100 µM (inactive) each time. Moreover, the GI50 was > 100 µM (inactive) in the experiment on OVCAR-8; > 100 µM (inactive) in the experiment with TK-10; > 100 µM (inactive) in the experiment on DMS-273; greater than 100 µM with HCT-15; > 100 µM (inactive) in the experiment with IGROV-1.
On to `O=C(O)/C(=C/c1ccccc1[N+](=O)[O-])c1ccccc1`, for which the GI50 with HOP-62, in the experiment with OVCAR-5, with A498, in the experiment with LOX IMVI, in the experiment with KM12 and with SK-MEL-2 was > 100 µM (inactive) each time. The GI50 in the experiment with ACHN, in the experiment with OVCAR-4, with SK-MEL-5, with SK-MEL-28, in the experiment on OVCAR-8 and in the experiment with TK-10 was > 100 µM (inactive) throughout. The figures for the GI50 in the experiment with DMS-273, with HCT-15 and in the experiment with IGROV-1 were > 100 µM (inactive), greater than 100 µM and > 100 µM (inactive), respectively.
With `Cc1cc(C)c(/N=N/c2c(O)c(S(=O)(=O)O)cc3cc(S(=O)(=O)O)ccc23)cc1C`, the GI50 in the experiment on HOP-62, with OVCAR-5, with MDA-N, in the experiment with HOP-92, in the experiment on A498 and in the experiment with LOX IMVI was > 100 µM (inactive) in each case. Also, the GI50 with T47D, in the experiment with KM12, with RXF 393, in the experiment with SK-MEL-2, in the experiment with ACHN and in the experiment with OVCAR-4 was > 100 µM (inactive) in each case. In addition, the GI50 in the experiment on SK-MEL-5 was > 100 µM (inactive); in the experiment with SK-MEL-28 it was > 100 µM (inactive); in the experiment on OVCAR-8, > 100 µM (inactive); in the experiment on TK-10 it was > 100 µM (inactive); with DU-145, > 100 µM (inactive); in the experiment with HCT-15 it was greater than 100 µM. In the experiment on IGROV-1, the GI50 is > 100 µM (inactive).
Consider `Nc1nc(SCC(=O)c2ccccc2)nc2nc3c(c(-c4ccccc4)c12)CCCC3`, for which the GI50 is 41.9 µM (inactive) in the experiment on HOP-62; 52 µM (inactive) in the experiment on OVCAR-5; 31.9 µM (inactive) with MDA-N; > 10 µM (inactive) with HOP-92; 19.8 µM (inactive) in the experiment with A498; 24.8 µM (inactive) with LOX IMVI. The GI50 is 40.3 µM (inactive) with T47D; 22.4 µM (inactive) in the experiment with KM12; 17.7 µM (inactive) with RXF 393; 27.9 µM (inactive) in the experiment with SK-MEL-2; 56.6 µM (inactive) in the experiment with ACHN; 23.4 µM (inactive) in the experiment on OVCAR-4. Besides, the GI50 in the experiment on SK-MEL-5 was 49.1 µM (inactive); with SK-MEL-28, 21.9 µM (inactive); in the experiment with OVCAR-8, 27.2 µM (inactive); with TK-10, > 100 µM (inactive); with DU-145, > 100 µM (inactive); with HCT-15, greater than 100 µM. Besides, in the experiment on IGROV-1, the GI50 is > 10 µM (inactive).
In the case of `CC(C)N(C(=O)C12C3C4C1C1C2C3C41C(=O)O)C(C)C` (centres undefined), the GI50 in the experiment on HOP-62, with OVCAR-5, with A498, with LOX IMVI, with KM12 and in the experiment with SK-MEL-2 was > 100 µM (inactive) each time. In addition, the GI50 in the experiment with ACHN, with OVCAR-4, in the experiment with SK-MEL-5, in the experiment with SK-MEL-28, with OVCAR-8 and in the experiment with TK-10 was > 100 µM (inactive) in each case. Further, the GI50 is > 100 µM (inactive) in the experiment on DMS-273, greater than 100 µM with HCT-15 and > 100 µM (inactive) in the experiment on IGROV-1.
